Test results as given in US10751339B2, “Substituted aminopyrimidine compounds and methods of use” (SUNSHINE LAKE PHARMA CO., LTD., priority 2018, dated 2020).

What was measured:
[1] = Compound stability in rat liver microsomes; assay type: in vitro ADME; conditions: pH 7.4
Summary of the method: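 Compounds (5 μM, 0.05% DMSO) incubated in duplicate with liver microsomes (0.5 mg protein/mL) and 1.0 mM NADPH in 100 mM phosphate buffer pH 7.4 at 37 °C, sampled 0–60 min. Remaining compound measured by LC/MS/MS, expressed as percent of zero-time control; denatured-microsome and dextromethorphan controls included.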

PI3K (p110β/p85α) (h) = PI3K (p110β/p85α) (h) (Homo sapiens (Human), UniProt P42338); test: PI3K (p110β/p85α) (h) non-radioactive HTRF kinase assay; assay type: biochemical
PI3K (p110β/p85α) (h), sequence (P42338 whole entry, the tested form may be a part): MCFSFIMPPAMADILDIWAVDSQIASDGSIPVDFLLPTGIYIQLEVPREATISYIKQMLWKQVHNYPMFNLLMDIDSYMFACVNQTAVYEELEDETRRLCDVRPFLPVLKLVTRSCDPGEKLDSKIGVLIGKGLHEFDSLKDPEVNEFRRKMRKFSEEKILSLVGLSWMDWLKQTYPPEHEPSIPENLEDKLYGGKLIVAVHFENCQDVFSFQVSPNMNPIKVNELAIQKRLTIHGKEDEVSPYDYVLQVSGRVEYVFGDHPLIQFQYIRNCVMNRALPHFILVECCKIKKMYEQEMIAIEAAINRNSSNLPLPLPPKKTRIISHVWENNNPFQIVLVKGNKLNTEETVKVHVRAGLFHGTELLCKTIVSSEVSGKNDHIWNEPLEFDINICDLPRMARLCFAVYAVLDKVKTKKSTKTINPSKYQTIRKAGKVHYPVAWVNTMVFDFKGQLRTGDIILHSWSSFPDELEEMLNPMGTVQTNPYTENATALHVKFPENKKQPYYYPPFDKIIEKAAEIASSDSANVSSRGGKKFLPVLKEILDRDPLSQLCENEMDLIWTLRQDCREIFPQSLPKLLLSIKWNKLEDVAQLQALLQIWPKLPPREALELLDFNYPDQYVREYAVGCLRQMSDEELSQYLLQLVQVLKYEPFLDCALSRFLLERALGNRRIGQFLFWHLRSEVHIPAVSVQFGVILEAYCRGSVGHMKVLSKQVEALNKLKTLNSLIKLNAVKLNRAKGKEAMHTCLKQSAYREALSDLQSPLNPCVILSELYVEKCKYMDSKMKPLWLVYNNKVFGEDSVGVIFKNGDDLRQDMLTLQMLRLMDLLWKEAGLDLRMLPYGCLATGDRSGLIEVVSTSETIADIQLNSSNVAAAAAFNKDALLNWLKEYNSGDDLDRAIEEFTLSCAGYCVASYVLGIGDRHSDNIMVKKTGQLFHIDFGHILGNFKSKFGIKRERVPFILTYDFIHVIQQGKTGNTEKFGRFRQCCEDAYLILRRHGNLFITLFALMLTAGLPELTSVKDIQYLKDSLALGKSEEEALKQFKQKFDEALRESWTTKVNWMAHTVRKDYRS
PI3K (p110β/p85α) (h), sequence (P27986 whole entry partner, the tested form may be a part): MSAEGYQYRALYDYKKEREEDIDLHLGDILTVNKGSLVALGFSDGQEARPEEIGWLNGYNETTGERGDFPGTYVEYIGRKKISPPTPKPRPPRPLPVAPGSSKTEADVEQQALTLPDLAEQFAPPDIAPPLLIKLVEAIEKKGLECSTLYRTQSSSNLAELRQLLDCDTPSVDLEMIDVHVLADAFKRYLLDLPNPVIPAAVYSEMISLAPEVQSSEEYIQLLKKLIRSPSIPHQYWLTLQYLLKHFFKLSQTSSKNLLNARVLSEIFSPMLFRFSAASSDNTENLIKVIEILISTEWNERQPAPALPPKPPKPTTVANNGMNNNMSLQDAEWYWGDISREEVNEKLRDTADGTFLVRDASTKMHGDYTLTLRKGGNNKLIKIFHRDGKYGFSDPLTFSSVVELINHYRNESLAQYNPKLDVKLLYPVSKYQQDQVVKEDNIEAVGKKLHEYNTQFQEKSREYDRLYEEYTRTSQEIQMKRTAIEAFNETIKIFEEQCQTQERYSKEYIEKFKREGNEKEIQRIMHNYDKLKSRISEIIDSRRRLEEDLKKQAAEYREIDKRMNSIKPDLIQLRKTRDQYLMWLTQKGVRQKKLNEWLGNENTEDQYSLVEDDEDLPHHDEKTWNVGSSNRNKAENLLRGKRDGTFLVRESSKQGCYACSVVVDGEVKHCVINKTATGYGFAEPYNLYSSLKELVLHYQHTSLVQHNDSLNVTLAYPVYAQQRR
Experimental: (§1) PI3K (p110β/p85α) (h) is incubated in assay buffer containing 10 μM phosphatidylinositol-4,5-bisphosphate and MgATP (concentration as required). The reaction is initiated by the addition of the MgATP mix. After incubation for 30 minutes at room temperature, the reaction is stopped by the addition of stop solution containing EDTA and biotinylated phosphatidylinositol-3,4,5-trisphosphate. Finally, detection buffer is added, which contains europium-labelled anti-GST monoclonal antibody, GST-tagged GRP1 PH domain and streptavidin-allophycocyanin. The plate is then read in timeresolved fluorescence mode and the homogenous time-resolved fluorescence (HTRF) signal is determined according to the formula HTRF=10000×(Em665 nm/Em620 nm).
(§2) The kinase assays described herein were performed at Millipore UK Ltd, Dundee Technology Park, Dundee DD2 1SW, UK.

PI3K (p120γ) (h) = PI3K (p120γ) (h) (Homo sapiens (Human), UniProt P48736); test: PI3K (p120γ) (h) non-radioactive HTRF kinase assay; assay type: biochemical
PI3K (p120γ) (h), sequence (P48736 whole entry): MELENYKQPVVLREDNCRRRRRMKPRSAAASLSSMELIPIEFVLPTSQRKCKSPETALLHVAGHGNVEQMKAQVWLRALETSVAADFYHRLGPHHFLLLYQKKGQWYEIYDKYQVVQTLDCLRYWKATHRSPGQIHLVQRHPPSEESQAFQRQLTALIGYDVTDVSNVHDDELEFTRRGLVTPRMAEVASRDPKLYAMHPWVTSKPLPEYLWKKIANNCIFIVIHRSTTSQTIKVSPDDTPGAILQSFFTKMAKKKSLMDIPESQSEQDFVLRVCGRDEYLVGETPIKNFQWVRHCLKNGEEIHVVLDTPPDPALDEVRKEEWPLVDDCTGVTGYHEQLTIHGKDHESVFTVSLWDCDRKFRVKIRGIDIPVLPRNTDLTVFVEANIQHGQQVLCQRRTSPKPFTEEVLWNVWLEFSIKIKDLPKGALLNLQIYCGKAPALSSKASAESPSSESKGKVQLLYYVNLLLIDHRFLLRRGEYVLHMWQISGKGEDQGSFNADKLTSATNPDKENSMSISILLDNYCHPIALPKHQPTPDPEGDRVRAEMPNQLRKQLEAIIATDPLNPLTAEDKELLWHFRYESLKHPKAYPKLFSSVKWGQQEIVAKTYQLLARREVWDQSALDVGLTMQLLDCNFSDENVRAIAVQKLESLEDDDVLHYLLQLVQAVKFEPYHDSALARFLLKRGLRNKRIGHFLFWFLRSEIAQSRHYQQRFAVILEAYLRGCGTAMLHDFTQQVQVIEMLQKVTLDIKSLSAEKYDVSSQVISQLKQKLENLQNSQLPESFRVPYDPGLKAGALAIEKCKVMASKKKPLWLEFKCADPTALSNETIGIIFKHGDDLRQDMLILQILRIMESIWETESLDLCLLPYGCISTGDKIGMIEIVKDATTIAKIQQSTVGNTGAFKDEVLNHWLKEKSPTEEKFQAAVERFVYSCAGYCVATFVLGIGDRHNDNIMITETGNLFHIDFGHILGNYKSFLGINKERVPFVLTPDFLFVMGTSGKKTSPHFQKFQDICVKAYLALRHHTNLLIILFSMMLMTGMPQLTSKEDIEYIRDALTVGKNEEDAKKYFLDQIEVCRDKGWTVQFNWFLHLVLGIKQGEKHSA
Experimental: as §1, with “(p120γ)” for “(p110β/p85α)”, “phosphatidylinositol-4, 5-bisphosphate” for “phosphatidylinositol-4,5-bisphosphate”
as §2

PI3K-α (SKOV3) = test: p-AKT HTRF assay, PI3K-α in SKOV3 cells; assay type: cell-based; conditions: Homo sapiens, SK-OV-3
Experimental: (§3) Cells were incubated at 37° C. in a 5% CO2 atmosphere overnight. […] Medium was then aspirated and 50 μL/well of lysis buffer was added. Plates were shaked for 45 minutes at room temperature and then 16 ul/well of lysate was transferred to 384-well plate. 4 ul/well of premixed antibody was added to the wells. The plate was centrifuged at 1000 rpm at RT for 1 minute and then incubated for 4 hours at 22° C., and Phospho-AKT (ser473) Kit was used for detection.

PI3K-β (786-O) = test: p-AKT HTRF assay, PI3K-β in 786-O cells; assay type: cell-based; conditions: Homo sapiens, 786-0
Experimental: as §3

PI3K-δ (RAJI) = test: p-AKT HTRF assay, PI3K-δ in RAJI cells stimulated with anti-IgM; assay type: cell-based; conditions: anti-human IgM stimulation
Experimental: as §3

PI3K-γ (RAW264.7) = test: p-AKT HTRF assay, PI3K-γ in RAW 264.7 cells stimulated with C5a; assay type: cell-based, murine; conditions: Mus musculus; RAW264.7 cells, C5a stimulation
Experimental: as §3

CCRF-SB = test: Cell proliferation assay (CTG), CCRF-SB; assay type: cell-based; conditions: Homo sapiens, 72 h
Experimental: (§4) • 1. Harvest cells during the logarithmic growth period and count cell number using Count-star. • 2. Adjust cell concentrations to […] with respective culture medium. • 3. Add 90 μL cell suspensions to 96-well plates with the final cell density of 1×10^4 cells/well. (cell concentration will be adjusted according to the data base or density optimization assay.) • 4. The next day, prepare 10× solution (Top working concentration: 10 μM of test article in media with 3.16-fold serial dilutions to achieve 9 dose levels). • 5. Dispense 10 μL drug solution of both test article and reference control in each well (duplicate for each drug concentration) of the plate.

KARPAS-422 = test: Cell proliferation assay (CTG), KARPAS-422; assay type: cell-based; conditions: Homo sapiens, 72 h
Experimental: as §4

SU-DHL-10 = test: Cell proliferation assay (CTG), SU-DHL-10; assay type: cell-based; conditions: Homo sapiens, SU-DHL10, 72 h
Experimental: as §4

WSU-NHL = test: Cell proliferation assay (CTG), WSU-NHL; assay type: cell-based; conditions: Homo sapiens, 72 h
Experimental: as §4

hERG channels = hERG channels (Homo sapiens (Human), UniProt Q12809); test: hERG assay, automated QPatch procedure; assay type: cell-based
hERG channels, sequence (Q12809 whole entry): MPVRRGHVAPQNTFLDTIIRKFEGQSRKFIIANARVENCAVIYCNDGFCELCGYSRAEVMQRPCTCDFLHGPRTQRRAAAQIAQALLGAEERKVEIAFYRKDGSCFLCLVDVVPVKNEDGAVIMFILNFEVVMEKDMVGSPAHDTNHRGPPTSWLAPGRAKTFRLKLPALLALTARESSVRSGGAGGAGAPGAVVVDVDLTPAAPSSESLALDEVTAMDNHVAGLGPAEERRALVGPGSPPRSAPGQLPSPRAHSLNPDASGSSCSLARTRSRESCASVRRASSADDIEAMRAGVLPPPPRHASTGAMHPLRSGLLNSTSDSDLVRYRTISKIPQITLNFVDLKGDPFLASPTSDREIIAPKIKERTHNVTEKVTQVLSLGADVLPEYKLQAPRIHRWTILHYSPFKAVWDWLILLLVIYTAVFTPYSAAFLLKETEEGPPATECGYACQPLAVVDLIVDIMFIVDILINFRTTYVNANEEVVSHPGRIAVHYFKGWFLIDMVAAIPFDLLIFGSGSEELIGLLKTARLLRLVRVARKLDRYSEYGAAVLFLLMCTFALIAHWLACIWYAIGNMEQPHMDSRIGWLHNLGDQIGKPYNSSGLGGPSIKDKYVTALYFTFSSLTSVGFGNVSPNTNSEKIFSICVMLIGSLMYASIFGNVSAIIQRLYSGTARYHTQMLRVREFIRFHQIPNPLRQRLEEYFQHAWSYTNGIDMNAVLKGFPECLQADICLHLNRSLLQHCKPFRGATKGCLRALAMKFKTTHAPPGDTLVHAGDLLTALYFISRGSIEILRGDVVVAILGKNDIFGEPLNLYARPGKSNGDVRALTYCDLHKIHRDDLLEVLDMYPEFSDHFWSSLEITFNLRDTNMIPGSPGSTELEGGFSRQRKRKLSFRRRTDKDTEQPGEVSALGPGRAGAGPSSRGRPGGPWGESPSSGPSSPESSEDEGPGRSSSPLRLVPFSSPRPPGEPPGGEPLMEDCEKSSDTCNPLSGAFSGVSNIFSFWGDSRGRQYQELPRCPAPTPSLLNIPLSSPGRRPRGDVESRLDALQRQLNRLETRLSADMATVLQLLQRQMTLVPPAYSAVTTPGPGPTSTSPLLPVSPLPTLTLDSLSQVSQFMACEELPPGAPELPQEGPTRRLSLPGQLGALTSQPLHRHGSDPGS
Source text: Only stable cells with recording parameters above threshold were allowed to enter the drug application procedure.

Cc1noc(-c2c(N)ncnc2N[C@@H](C)c2nc3cccc(C#CCO)c3c(=O)n2-c2ccccc2)n1 [Example 34, (S)-2-(1-((6-amino-5-(3-methyl-1,2,4-oxadiazol-5-yl)pyrimidin-4-yl)amino)ethyl)-5-(3-hydroxyprop-1-yn-1-yl)-3-phenylquinazolin-4(3H)-one]
CLint scaled at 5 μM ([1]; liver microsomes, in vivo CLint extrapolated from rat liver microsome incubation): 31 mL/min/kg
half-life at 5 μM ([1]; rat liver microsomes 0.5 mg protein/mL, compound 5 μM, NADPH, 37° C., read-out: Rat T1/2): 1.34 h
IC50 (PI3K (p110β/p85α) (h)): 160 nM
IC50 (PI3K (p120γ) (h)): 192 nM
IC50 (PI3K-α (SKOV3)): 2600 nM
IC50 (PI3K-β (786-O)): 70.3 nM
IC50 (PI3K-δ (RAJI)): 0.65 nM
IC50 (PI3K-γ (RAW264.7)): 128 nM
IC50 (CCRF-SB): 318 nM
IC50 (KARPAS-422): 310 nM
IC50 (SU-DHL-10): 300 nM
IC50 (WSU-NHL): 49 nM
IC50 (hERG channels): > 30000 nM
